Legend:
Format in all cases: cell-based
[1] = tested on: HBL1 cells; test: Combined drug treatment, CellTiter-Glo cell viability assay in HBL1 cell line
Procedure: (§1) A 40 μL aliquot of CellTiter-Glo® reagent was added directly into each well of the 96-W plate. The plate was then shaken on a Shaker (Labsystem Wellmix) at speed 5 for 10-20 min at room temperature. Next, about 100 μL of the mixed medium was transferred to a white, non-transparent, flat bottom 96-W plate for assaying. A Flexstation 3 luminometer was used for detecting and measuring the luminescent signals. Measurements were taken at room temperature.
(§2) The luminescent measurements were subsequently processed and analyzed using CalcuSyn (CI) and Chalice Analyzer (synergy score). […] In general, the resulting combination index (CI) obtained from the Chou-Talalay method defines quantitatively for additive effect (CI=1), synergism (CI<1), and antagonism (CI>1) in drug combinations. […] Biotechnol.
(§3) Cell growth effects were determined by the CellTiter-Glo® luminescent cell viability assay (Promega). The combination index (C.I.), a drug interactivity measurement was calculated with Calcusyn. Synergy scores were calculated by the Chalice Analyzer (Horizon CombinatoRx). ApoDETECT Annexin V-FITC Kit was used to detect apoptotic cell population. LC3B antibody (Cell Signaling) was used for Western blot analysis to detect autophagic marker LC3B-II. HBL-1 cells were plated in MethoCult (StemCell Technologies) and number of colonies was counted 7 days after drug treatment to determine the effect on colony formation. TLR related gene expression was determined by using RT^2 Profiler PCR Array (Qiagen).

[2] = tested on: TMD8 cells; test: Combined drug treatment, CellTiter-Glo cell viability assay in TMD8 cell line; details: for luminescent signal (CellTiter-Glo): test ODN 1 μM or chloroquine 10 μM, 3 days; for average CI value for the ibrutinib and chloroquine combination: CalcuSyn; for synergy score for the ibrutinib and chloroquine combination: Chalice Analyzer
Procedure: 200 μl of TMD8 wt cells (1.0×10^4 cells) at 5.0×10^4 cells/ml was plated into each well of a 96-well plate. The cells were grown in RPMI-10P medium.
The TLR9 antagonists used for this experiment included ODN 4084-F, ODN INH-1, ODN INH-18, and ODN TTAGGG. […] The TLR9 agonists used for this experiment included ODN 2006, ODN 2216, and ODN 2395. The TLR9 agonists were used to stimulate TLR signaling. Chloroquine is a non-specific TLR antagonist.
The stock solutions for the TLR9 antagonists and the TLR9 agonists were each prepared at 500 μM concentration. The stock solution for chloroquine diphosphate was prepared at 50 mM concentration.
The 96-W plate was then incubated for 3 days. Cell viability was examined using a CellTiter-Glo® assay.
as §1
CellTiter-Glo® reagents were thawed prior to use. Cells pre-plated onto a second 96-W plate and incubated at room temperature for 30 minutes were used for calibration purposes.
The luminescent measurements were subsequently processed and analyzed using CalcuSyn (CI) and Chalice Analyzer (synergy score). CalcuSyn performs the multiple drug dose-effect calculations using the Median Effect methods described by T-C Chou and P. Talalay in “Analysis of combined drug effects: a new look at a very old problem,” Trends Pharmacol. Sci. 4:450-454 (1983). In general, the resulting combination index (CI) obtained from the Chou-Talalay method defines quantitatively for additive effect (CI=1), synergism (CI<1), and antagonism (CI>1) in drug combinations. […] Biotechnol. 27(7):659-666 (2009).
as §3

[3] = tested on: OCI-LY10 cells; test: Combined drug treatment, CellTiter-Glo cell viability assay in OCI-LY10 cell line; details: for synergy score for the chloroquine/ibrutinib combination: LY10 cells
Procedure: as §1, §2, §3

SMILES: CCN(CC)CCCC(C)Nc1ccnc2cc(Cl)ccc12 (stereo not shown) [Chloroquine, chloroquine]
- synergy with ibrutinib (in words) [1]: Synergy was observed
- CI value for the chloroquine/ibrutinib combination ([1]; with agonist ODN2216): 0.35
- synergy score for the chloroquine/ibrutinib combination ([1]; with agonist ODN2216): 3.5
- CI value for the chloroquine/ibrutinib combination ([1]; without agonist ODN2216): 0.56
- synergy score for the chloroquine/ibrutinib combination ([1]; without agonist ODN2216): 3.03
- luminescent signal (CellTiter-Glo) ([2]; Control (no TLR9 agonist), ibrutinib 0 nM): 275515
- luminescent signal (CellTiter-Glo) ([2]; Control (no TLR9 agonist), ibrutinib 0.0003 nM): 264724
- luminescent signal (CellTiter-Glo) ([2]; Control (no TLR9 agonist), ibrutinib 0.0013 nM): 265058
- luminescent signal (CellTiter-Glo) ([2]; Control (no TLR9 agonist), ibrutinib 0.0064 nM): 271348
- luminescent signal (CellTiter-Glo) ([2]; Control (no TLR9 agonist), ibrutinib 0.032 nM): 276679
- luminescent signal (CellTiter-Glo) ([2]; Control (no TLR9 agonist), ibrutinib 0.16 nM): 250469
- luminescent signal (CellTiter-Glo) ([2]; Control (no TLR9 agonist), ibrutinib 0.8 nM): 177291
- luminescent signal (CellTiter-Glo) ([2]; Control (no TLR9 agonist), ibrutinib 4 nM): 86168
- luminescent signal (CellTiter-Glo) ([2]; Control (no TLR9 agonist), ibrutinib 20 nM): 78916
- luminescent signal (CellTiter-Glo) ([2]; Control (no TLR9 agonist), ibrutinib 100 nM): 61700
- luminescent signal (CellTiter-Glo) ([2]; TLR9 agonist ODN 2006 1 μM, ibrutinib 0 nM): 275829
- luminescent signal (CellTiter-Glo) ([2]; TLR9 agonist ODN 2006 1 μM, ibrutinib 0.0003 nM): 258871
- luminescent signal (CellTiter-Glo) ([2]; TLR9 agonist ODN 2006 1 μM, ibrutinib 0.0013 nM): 250534
- luminescent signal (CellTiter-Glo) ([2]; TLR9 agonist ODN 2006 1 μM, ibrutinib 0.0064 nM): 249082
- luminescent signal (CellTiter-Glo) ([2]; TLR9 agonist ODN 2006 1 μM, ibrutinib 0.032 nM): 239360
- luminescent signal (CellTiter-Glo) ([2]; TLR9 agonist ODN 2006 1 μM, ibrutinib 0.16 nM): 247058
- luminescent signal (CellTiter-Glo) ([2]; TLR9 agonist ODN 2006 1 μM, ibrutinib 0.8 nM): 138546
- luminescent signal (CellTiter-Glo) ([2]; TLR9 agonist ODN 2006 1 μM, ibrutinib 4 nM): 79843
- luminescent signal (CellTiter-Glo) ([2]; TLR9 agonist ODN 2006 1 μM, ibrutinib 20 nM): 67694
- luminescent signal (CellTiter-Glo) ([2]; TLR9 agonist ODN 2006 1 μM, ibrutinib 100 nM): 62288
- luminescent signal (CellTiter-Glo) ([2]; TLR9 agonist ODN 2216 1 μM, ibrutinib 0 nM): 203015
- luminescent signal (CellTiter-Glo) ([2]; TLR9 agonist ODN 2216 1 μM, ibrutinib 0.0003 nM): 193567
- luminescent signal (CellTiter-Glo) ([2]; TLR9 agonist ODN 2216 1 μM, ibrutinib 0.0013 nM): 229545
- luminescent signal (CellTiter-Glo) ([2]; TLR9 agonist ODN 2216 1 μM, ibrutinib 0.0064 nM): 200219
- luminescent signal (CellTiter-Glo) ([2]; TLR9 agonist ODN 2216 1 μM, ibrutinib 0.032 nM): 199458
- luminescent signal (CellTiter-Glo) ([2]; TLR9 agonist ODN 2216 1 μM, ibrutinib 0.16 nM): 207276
- luminescent signal (CellTiter-Glo) ([2]; TLR9 agonist ODN 2216 1 μM, ibrutinib 0.8 nM): 115898
- luminescent signal (CellTiter-Glo) ([2]; TLR9 agonist ODN 2216 1 μM, ibrutinib 4 nM): 65959
- luminescent signal (CellTiter-Glo) ([2]; TLR9 agonist ODN 2216 1 μM, ibrutinib 20 nM): 48838
- luminescent signal (CellTiter-Glo) ([2]; TLR9 agonist ODN 2216 1 μM, ibrutinib 100 nM): 44662
- luminescent signal (CellTiter-Glo) ([2]; TLR9 agonist ODN 2395 1 μM, ibrutinib 0 nM): 170080
- luminescent signal (CellTiter-Glo) ([2]; TLR9 agonist ODN 2395 1 μM, ibrutinib 0.0003 nM): 168027
- luminescent signal (CellTiter-Glo) ([2]; TLR9 agonist ODN 2395 1 μM, ibrutinib 0.0013 nM): 177301
- luminescent signal (CellTiter-Glo) ([2]; TLR9 agonist ODN 2395 1 μM, ibrutinib 0.0064 nM): 170957
- luminescent signal (CellTiter-Glo) ([2]; TLR9 agonist ODN 2395 1 μM, ibrutinib 0.032 nM): 167073
- luminescent signal (CellTiter-Glo) ([2]; TLR9 agonist ODN 2395 1 μM, ibrutinib 0.16 nM): 156507
- luminescent signal (CellTiter-Glo) ([2]; TLR9 agonist ODN 2395 1 μM, ibrutinib 0.8 nM): 100658
- luminescent signal (CellTiter-Glo) ([2]; TLR9 agonist ODN 2395 1 μM, ibrutinib 4 nM): 69482
- luminescent signal (CellTiter-Glo) ([2]; TLR9 agonist ODN 2395 1 μM, ibrutinib 20 nM): 59032
- luminescent signal (CellTiter-Glo) ([2]; TLR9 agonist ODN 2395 1 μM, ibrutinib 100 nM): 55950
- synergy with ibrutinib (in words) ([2]; TMD8 cells, whether or not TLR agonist was present): Synergy was observed
- average CI value for the ibrutinib and chloroquine combination ([2]; TMD8 cells, with agonists): 0.11
- synergy score for the ibrutinib and chloroquine combination ([2]; TMD8 cells, with agonists): 4.22
- average CI value for the ibrutinib and chloroquine combination ([2]; TMD8 cells, without agonists): 0.40
- synergy score for the ibrutinib and chloroquine combination ([2]; TMD8 cells, without agonists): 3.48
- CI value for the chloroquine/ibrutinib combination ([3]; LY10, with agonist ODN2216): 0.59
- CI value for the chloroquine/ibrutinib combination ([3]; LY10, without agonist ODN2216): 0.50
- synergy score for the chloroquine/ibrutinib combination ([3]; with agonist ODN2216): 2.63
- synergy score for the chloroquine/ibrutinib combination ([3]; without agonist ODN2216): 2.44
- synergy with ibrutinib (in words) ([3]; OCI-LY10 cells): Synergy was observed

Source: patent publication US20170354655A1, “TLR INHIBITOR AND BRUTON'S TYROSINE KINASE INHIBITOR COMBINATIONS” (Pharmacyclics LLC, priority 2014, published 2017)
